Reference: patent publication US20060089317A1, “Treatment of metastatic breast cancer with anthracyclines, and taxanes” (The University Of Manitoba, priority 2002, published 2006)

System: patients with metastatic breast cancer
Conditions: DPPE pretreatment
Experimental: In the specific Phase II clinical trial described herein, there was employed 6 mg/kg of DPPE in the form of its hydrochloride salt, administered intravenously as an aqueous solution thereof over 80 minutes, with the last 20 minutes being accompanied by infusion of the chemotherapeutic agents doxorubicin or epirubicin in combination with Taxol or Taxotere followed by the intravenous administration of an aqueous solution at a dose of 2.5 mg/kg of DPPE for 180 minutes accompanied by the infusion of Taxol or for 60 minutes accompanied by the infusion of Taxotere.
In the specific Phase II clinical trial described herein, there was employed 50 mg/M^2 of doxorubicin/epirubicin and either 175 mg/^2 Taxol or 75 mg/M^2 Taxotere administered over the last 20 minutes of infusion of the DPPE solution and over a further 180 minutes for Taxol or 60 minutes for Taxotere, accompanied by infusion of a 2.5 mg/kg of DPPE solution.
29 patients with metastatic breast cancer were treated with a combination of DPPE and epirubicin/Taxol (N=22), DPPE and doxorubicin/Taxol (N=6) or a combination of DPPE and epirubicin/Taxotere (N=1). […]

## CCN(CC)CCOc1ccc(Cc2ccccc2)cc1 [DPPE, N,N-diethyl-2-[4-(phenylmethyl)-phenoxy]ethanamine]
  TTP in comparison to patients not receiving DPPE treatment: did not improve
Compared with published studies
  overall survival of patients receiving DPPE: significantly improved
